{
  "source": "patent US12188932B2",
  "about": "“Method for high throughput peptide-MHC affinity screening for TCR ligands” (priority 2018, dated 2025)",
  "system": "GloResponse NFAT-luc2 Jurkat cells",
  "conditions": "T2 loaded with 100 nM peptide, 18 hours",
  "procedure": "T cell activation assays using GloResponse™ NFAT-luc2 Jurkat cells and peptide loaded T2 target cells were performed according to manufacturer instructions. In short, T2 cells were harvested from continuous cell culture, washed and resuspended in T2 culture medium at a concentration of 3.3×10^6 cells/ml and transferred to 96 well round bottom plates (Corning Costar®, Cat. Nr. 3799). Peptide in DMSO, 0.5% TFA was added to a final concentration of 100 nM and the suspension incubated for 2 to 3 hours at 37° C., 5% CO2. bsTCR formulated in PBS was diluted in T2 culture medium to desired concentration and 25 μl of the respective dilution was distributed to white 96 well flat bottom plates (Brand, Cat. Nr. 781965). […] After the incubation period 75 μl of Bio-Glo™ luciferase reagent was added to each well and the plates incubated for minutes at 300 rpm on a plate shaker in the dark before reading luminescence at a 0.5 second integration time with a Synergy2 plate reader (Biotek). Luminescence as measured in relative light units (RLU) was converted to fold induction for each well by dividing measured RLU through those of control wells.\nT2 cells were loaded separately with respective peptides from the positional scanning library at a concentration of 100 nM and subsequently co-incubated with Jurkats and different bsTCR concentrations for 18 hours before readout.",
  "data": [
    {"sequence": "ALYNVLAKV", "values": [
      {"measurement": "T cell activation (luminescence fold induction over background)", "value": "reactive in the reporter assay"}
    ]}
  ]
}
